In publication PMC10439028, “SGLT5 is the renal transporter for 1,5-anhydroglucitol, a major player in two rare forms of neutropenia” (Cellular and Molecular Life Sciences: CMLS, 2023):

What was measured:
[1] = target: T1, SGLT5-TM (S70N–E71I–L75H) (Homo sapiens, UniProt A0PJK1, E71I/L75H/S70N); experiment: Inhibition of 10 µM 1,5-AG transport by triple mutant SGLT5-TM (S70N-E71I-L75H); assay type: cell-based
T1 construct: pUB83-hSGLT5-iso2 as well as the various SGLT5 mutants obtained were used to transduce HEK293T cells; expressed in transfected cells; host or cells: HEK293T, lentiviral transduction (pUB83)
T1 sequence (A0PJK1 whole entry S70N/E71I/L75H): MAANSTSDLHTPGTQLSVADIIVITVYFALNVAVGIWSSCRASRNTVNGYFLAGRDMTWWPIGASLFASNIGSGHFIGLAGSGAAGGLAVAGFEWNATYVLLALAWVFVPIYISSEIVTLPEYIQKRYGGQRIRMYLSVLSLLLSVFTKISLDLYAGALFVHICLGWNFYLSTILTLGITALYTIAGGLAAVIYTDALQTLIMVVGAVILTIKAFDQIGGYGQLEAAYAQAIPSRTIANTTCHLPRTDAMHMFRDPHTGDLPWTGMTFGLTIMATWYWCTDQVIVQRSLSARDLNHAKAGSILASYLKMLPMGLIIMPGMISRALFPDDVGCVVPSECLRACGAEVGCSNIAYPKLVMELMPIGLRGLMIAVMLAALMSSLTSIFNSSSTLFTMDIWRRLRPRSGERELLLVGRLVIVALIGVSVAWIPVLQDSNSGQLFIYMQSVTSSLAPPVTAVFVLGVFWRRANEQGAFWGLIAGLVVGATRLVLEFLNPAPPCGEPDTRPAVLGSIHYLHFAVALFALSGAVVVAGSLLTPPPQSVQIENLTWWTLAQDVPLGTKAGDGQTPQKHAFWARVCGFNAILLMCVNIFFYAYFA
Method: The transport experiments to study the specificity of SGLT4 or SGLT5, were performed in the presence of 10 µM U-[^14C + ^12C]-mannose (for SGLT4) or 2-[^3H + ^1H]-1,5-AG (for SGLT5) and increasing concentrations of various sugars tested. The transport experiments to study the inhibition of empagliflozin, dapagliflozin or remogliflozin, on the transport of 1,5-AG by SGLT5 or its variants were performed in the presence of 10 µM 2-[^3H + ^1H]-1,5-AG and increasing concentrations of the various gliflozins tested.
SGLT5 mutants were created using the quick-change site directed mutagenesis method that enables effective mutagenesis without subcloning of the amplified PCR products. Complementary primer pairs carrying the desired replacements (Supplementary Table 3) were designed using an online tool (https://www.agilent.com/store/primerDesignProgram.jsp). The PCR protocol was carried out following the manufacturer instructions regarding the KOD HOT Start polymerase kit (TOYOBO™, Novagen). The amplified DNA was cleaned-up from the reactions constituents using the GeneJET PCR purification Kit (Thermo Scientific™) and the size of the DNA fragment were verified by DNA agarose-gel electrophoresis. After eliminating the parental DNA by digesting the purified DNA with the DpnI restriction enzyme, the DNA fragments containing the appropriate changes were transformed in E. coli NEB Turbo competent cells (C2984H). Once colonies were obtained, plasmid DNA was finally amplified, purified and sequenced to verify that the required changes had been introduced and eliminate any PCR errors. Next, pUB83-hSGLT5-iso2 as well as the various SGLT5 mutants obtained were used to transduce HEK293T cells using the exact same protocol as described above to create model cell lines overexpressing the different SGLT5 transporters.
Supplementary Fig. 7: Substrate specificity of SGLT5 - impact of replacing specific and conserved substrate binding residues in human SGLT5 by the equivalent ones in […]
When shown, the IC50 values are derived from inhibition curves showing the transport activity of 1,5-AG by the indicated SGLT5 mutants. Values show the concentration needed of the various sugars to inhibit by 50% the transport activity of 10 µM 2-[1H+3H]-1,5-AG. When the inhibition was too weak to derive IC50 values, the inhibition of the transport of 1,5-AG with the indicated concentration of the inhibitor-sugar is shown. Of note, despite having a lower […]
µM). These apparently contradictory changes are not necessarily surprising: in the case of enzymes, there are multiple examples of mutations that, at the same time, increase the apparent affinity (decrease the Km) of an enzyme for its substrate while decreasing the Vmax.
Measurement of transport activities and the description of the structures of the various inhibitory sugars used are as in Fig. 3C. Data corresponds to n = 3 in at least 2 independent […]
(1 picture or pasted object on this page, not shown here)

[2] = target: T2, hSGLT5 Arg401His (Homo sapiens, UniProt A0PJK1, R401H); experiment: 1,5-AG uptake in HEK293T cells overexpressing SGLT5 variant Arg401His; assay type: cell-based
T2 construct: pUB83-hSGLT5-iso2 as well as the various SGLT5 mutants obtained were used to transduce HEK293T cells; expressed in transfected cells; host or cells: HEK293T, lentiviral transduction (pUB83)
T2 sequence (A0PJK1 1-596 R401H): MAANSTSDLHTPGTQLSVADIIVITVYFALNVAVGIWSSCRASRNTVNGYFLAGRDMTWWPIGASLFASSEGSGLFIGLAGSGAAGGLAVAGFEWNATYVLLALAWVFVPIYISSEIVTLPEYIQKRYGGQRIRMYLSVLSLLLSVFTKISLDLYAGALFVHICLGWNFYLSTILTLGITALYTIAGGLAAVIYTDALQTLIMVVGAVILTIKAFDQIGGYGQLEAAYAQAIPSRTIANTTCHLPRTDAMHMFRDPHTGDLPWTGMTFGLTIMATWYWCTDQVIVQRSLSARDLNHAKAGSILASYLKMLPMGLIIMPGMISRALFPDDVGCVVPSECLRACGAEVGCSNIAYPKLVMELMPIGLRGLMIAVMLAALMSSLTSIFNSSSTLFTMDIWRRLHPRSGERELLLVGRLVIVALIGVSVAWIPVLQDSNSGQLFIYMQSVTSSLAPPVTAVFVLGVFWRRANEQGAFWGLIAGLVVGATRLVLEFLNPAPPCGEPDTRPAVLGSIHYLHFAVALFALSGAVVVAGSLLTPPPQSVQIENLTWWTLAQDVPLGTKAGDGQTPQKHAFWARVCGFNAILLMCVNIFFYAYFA
Method: For a typical transporter experiment we proceeded as follows. […] To minimize cell loss during the various washing steps in the radioactive uptake experiments, the wells where the cells were seeded were previously coated with poly- D-lysine, which improved their adhesion to the plastic surface of the wells. For this, each well of the 24-well plates was treated with 200 µl of a 0.01% poly-L-lysine solution for 10 min, washed 3 times with 1 ml of sterilized water and left to dry for 2 h. Only then could the 24-well plates be seeded with the appropriate cell lines and cultured overnight at 37 °C in 5% CO2.
On day two, the radioactive uptake assay could be performed. The cell culture media was removed by aspiration and cells were incubated for 20 min at 37 °C and 5% CO2 with a basal medium (10 mM HEPES, pH 7.4, 1 mM CaCl2, 1 mM MgCl2, 2 mM KCl) containing 140 mM choline chloride to deplete intracellular Na^2+ ions. […]
Once the uptake medium was added to the cells, the plates were incubated at 37 °C in 5% CO2 during the required time. […] In each experiment, the transport activities were calculated after subtracting a “blank” value, corresponding to the radioactivity in the appropriate control cells (HEK293T cells that were stably or transiently transfected with one of the parent plasmids pEF6/MycHisA, pEF6HisB, pUB82 or pUB83 with no inserted cDNA) that were analyzed in parallel. […]

SMILES | loss of affinity of SGLT5-TM ([1]; versus wild-type SGLT5, competition experiments, Supplementary Fig. 7) | Vmax [2] | reduction of transport efficiency compared to SGLT5 [2] | IC50 for 1,5-AG lower than the IC50 for SGLT5-WT ([1]; 33 µM versus 162 µM) | inhibition of SGLT5-TM ([1]; competition experiments, Supplementary Fig. 7)
OC[C@H]1OC(O)[C@@H](O)[C@@H](O)[C@@H]1O (some centres unmarked) [Mannose, mannose] | tenfold |  |  |  | 
OC[C@H]1OC[C@H](O)[C@@H](O)[C@@H]1O [1,5-AG, 1,5-anhydroglucitol] |  | 11.4 ± 0.2 pmol/min/10^5cells | twofold | 5 fold | still being inhibited
